How the values were obtained:
[1] = molecular target: Tyrosine-protein kinase Lck (Homo sapiens) (UniProt P06239); assay: Inhibition of wild-type human partial length LCK (R207 to P509 residues) expressed in bacterial expression system assessed as residual activity at 1 uM by Kinomescan method relative to control
[2] = molecular target: Protein kinase C delta type (Homo sapiens) (UniProt Q05655); assay: Inhibition of wild-type human partial length PRKCD (Q328 to D676 residues) expressed in bacterial expression system assessed as residual activity at 1 uM by Kinomescan method relative to control
[3] = molecular target: Macrophage colony-stimulating factor 1 receptor (Homo sapiens) (UniProt P07333); assay: Inhibition of wild-type human partial length autoinhibited CSF1R (Y538 to S939 residues) expressed in mammalian expression system assessed as residual activity at 1 uM by Kinomescan method relative to control
[4] = molecular target: Ephrin type-A receptor 2 (Homo sapiens) (UniProt P29317); assay: Inhibition of wild-type human partial length EPHA2 (T593 to V891 residues) expressed in bacterial expression system assessed as residual activity at 1 uM by Kinomescan method relative to control
[5] = molecular target: Activin receptor type-1 (Homo sapiens) (UniProt Q04771); assay: Inhibition of wild-type human ACVR1 (C188 to C509 residues) expressed in bacterial expression system assessed as residual activity at 1 uM by Kinomescan method relative to control
Activin receptor type-1 (Homo sapiens), sequence (Q04771 whole entry, the tested form may be a part): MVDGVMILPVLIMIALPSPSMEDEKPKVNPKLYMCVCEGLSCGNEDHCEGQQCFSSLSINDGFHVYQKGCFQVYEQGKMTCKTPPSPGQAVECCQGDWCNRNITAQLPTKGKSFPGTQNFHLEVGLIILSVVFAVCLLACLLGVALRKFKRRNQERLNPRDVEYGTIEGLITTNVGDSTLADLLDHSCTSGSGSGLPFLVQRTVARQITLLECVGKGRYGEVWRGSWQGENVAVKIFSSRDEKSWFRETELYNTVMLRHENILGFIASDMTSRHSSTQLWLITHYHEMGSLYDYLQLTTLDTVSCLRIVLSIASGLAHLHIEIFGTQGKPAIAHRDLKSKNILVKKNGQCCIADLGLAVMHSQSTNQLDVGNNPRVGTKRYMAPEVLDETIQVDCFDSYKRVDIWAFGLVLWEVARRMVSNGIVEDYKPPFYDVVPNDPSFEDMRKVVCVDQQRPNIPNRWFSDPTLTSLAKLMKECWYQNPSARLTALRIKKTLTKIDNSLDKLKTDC

[6] = molecular target: Dual specificity tyrosine-phosphorylation-regulated kinase 1B (Homo sapiens) (UniProt Q9Y463); assay: Inhibition of wild-type human full length DYRK1B (M1 to S629 residues) expressed in bacterial expression system assessed as residual activity at 1 uM by Kinomescan method relative to control
Dual specificity tyrosine-phosphorylation-regulated kinase 1B (Homo sapiens), sequence (Q9Y463 whole entry, looked up, the tested form may be a part): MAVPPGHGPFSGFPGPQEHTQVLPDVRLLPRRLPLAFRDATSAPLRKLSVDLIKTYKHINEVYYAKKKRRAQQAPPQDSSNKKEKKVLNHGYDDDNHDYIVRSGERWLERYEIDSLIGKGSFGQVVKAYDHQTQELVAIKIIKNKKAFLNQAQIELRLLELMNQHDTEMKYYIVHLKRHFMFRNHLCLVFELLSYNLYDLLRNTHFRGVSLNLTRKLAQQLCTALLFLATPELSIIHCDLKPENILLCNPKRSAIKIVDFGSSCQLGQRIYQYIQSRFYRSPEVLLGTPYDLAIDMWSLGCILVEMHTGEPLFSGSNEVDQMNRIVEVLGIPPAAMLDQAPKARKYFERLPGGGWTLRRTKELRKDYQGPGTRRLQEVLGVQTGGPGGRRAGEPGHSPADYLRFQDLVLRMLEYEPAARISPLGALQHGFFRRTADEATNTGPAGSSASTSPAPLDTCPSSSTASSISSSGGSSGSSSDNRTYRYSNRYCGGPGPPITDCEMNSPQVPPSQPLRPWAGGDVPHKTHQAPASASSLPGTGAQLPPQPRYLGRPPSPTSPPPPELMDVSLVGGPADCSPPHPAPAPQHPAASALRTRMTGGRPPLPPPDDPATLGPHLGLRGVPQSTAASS

[7] = molecular target: Mitogen-activated protein kinase kinase kinase 15 (Homo sapiens) (UniProt Q6ZN16); assay: Inhibition of wild-type human partial length MAP3K15 (T625 to L932 residues) expressed in mammalian expression system assessed as residual activity at 1 uM by Kinomescan method relative to control
[8] = molecular target: Activin receptor type-2B (Homo sapiens) (UniProt Q13705); assay: Inhibition of wild-type human ACVR2B (H169 to D504 residues) expressed in bacterial expression system assessed as residual activity at 1 uM by Kinomescan method relative to control
[9] = molecular target: Calcium/calmodulin-dependent protein kinase kinase 2 (Homo sapiens) (UniProt Q96RR4); assay: Inhibition of wild-type human partial length CAMKK2 (D65 to V471 residues) expressed in bacterial expression system assessed as residual activity at 1 uM by Kinomescan method relative to control
[10] = molecular target: Serine/threonine-protein kinase ULK3 (Homo sapiens) (UniProt Q6PHR2); assay: Inhibition of wild-type human partial length ULK3 (M1 to Q290 residues) expressed in mammalian expression system assessed as residual activity at 1 uM by Kinomescan method relative to control
Serine/threonine-protein kinase ULK3 (Homo sapiens), sequence (Q6PHR2 whole entry, the tested form may be a part): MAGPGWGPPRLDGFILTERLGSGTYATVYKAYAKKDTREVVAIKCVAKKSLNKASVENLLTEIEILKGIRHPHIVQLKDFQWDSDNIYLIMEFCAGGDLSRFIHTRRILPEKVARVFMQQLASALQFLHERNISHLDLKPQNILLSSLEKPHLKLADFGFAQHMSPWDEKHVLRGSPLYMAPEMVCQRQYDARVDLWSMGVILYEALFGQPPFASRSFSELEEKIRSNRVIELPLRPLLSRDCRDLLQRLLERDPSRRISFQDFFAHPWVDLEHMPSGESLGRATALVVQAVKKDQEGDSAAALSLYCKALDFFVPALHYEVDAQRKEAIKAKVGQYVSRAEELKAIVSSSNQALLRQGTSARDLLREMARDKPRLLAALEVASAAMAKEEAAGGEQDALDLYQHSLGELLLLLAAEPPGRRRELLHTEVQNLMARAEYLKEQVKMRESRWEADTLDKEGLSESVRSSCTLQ

[11] = molecular target: Testis-specific serine/threonine-protein kinase 1 (Homo sapiens) (UniProt Q9BXA7); assay: Inhibition of wild-type human full length TSSK1B (M1 to Q367 residues) expressed in bacterial expression system assessed as residual activity at 1 uM by Kinomescan method relative to control
[12] = molecular target: Cyclin-dependent kinase-like 5 (Homo sapiens) (UniProt O76039); assay: Inhibition of wild-type human partial length CDKL5 (M1 to S337 residues) expressed in mammalian expression system assessed as residual activity at 1 uM by Kinomescan method relative to control
Cyclin-dependent kinase-like 5 (Homo sapiens), sequence (O76039 whole entry, the tested form may be a part): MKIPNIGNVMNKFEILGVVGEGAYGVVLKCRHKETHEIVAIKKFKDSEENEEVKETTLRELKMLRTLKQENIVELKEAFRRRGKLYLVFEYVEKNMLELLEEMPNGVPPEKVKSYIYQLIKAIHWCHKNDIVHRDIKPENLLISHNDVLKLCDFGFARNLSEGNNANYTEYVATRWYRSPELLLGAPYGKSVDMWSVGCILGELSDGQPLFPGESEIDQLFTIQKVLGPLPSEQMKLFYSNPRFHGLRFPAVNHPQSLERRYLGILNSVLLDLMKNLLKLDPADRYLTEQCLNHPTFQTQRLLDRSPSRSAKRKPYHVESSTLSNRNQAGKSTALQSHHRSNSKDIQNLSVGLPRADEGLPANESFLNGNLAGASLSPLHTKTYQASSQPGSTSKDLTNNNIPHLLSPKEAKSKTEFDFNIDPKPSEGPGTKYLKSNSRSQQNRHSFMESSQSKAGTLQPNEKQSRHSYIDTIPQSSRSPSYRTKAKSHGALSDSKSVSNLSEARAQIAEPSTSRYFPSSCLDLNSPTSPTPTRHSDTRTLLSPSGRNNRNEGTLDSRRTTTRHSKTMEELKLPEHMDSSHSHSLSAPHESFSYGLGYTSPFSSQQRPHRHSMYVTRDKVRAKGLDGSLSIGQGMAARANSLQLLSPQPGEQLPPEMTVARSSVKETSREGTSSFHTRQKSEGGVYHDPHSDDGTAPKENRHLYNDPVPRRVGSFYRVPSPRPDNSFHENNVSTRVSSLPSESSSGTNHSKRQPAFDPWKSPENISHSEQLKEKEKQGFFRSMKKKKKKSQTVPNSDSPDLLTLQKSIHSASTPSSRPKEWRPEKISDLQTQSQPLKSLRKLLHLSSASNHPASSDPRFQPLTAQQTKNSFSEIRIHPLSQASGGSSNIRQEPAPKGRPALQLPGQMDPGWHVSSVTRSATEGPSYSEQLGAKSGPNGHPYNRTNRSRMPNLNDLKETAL

[13] = molecular target: Phosphatidylinositol 5-phosphate 4-kinase type-2 beta (Homo sapiens) (UniProt P78356); assay: Inhibition of wild-type human full length PIP5K2B (M1 to T416 residues) expressed in bacterial expression system assessed as residual activity at 1 uM by Kinomescan method relative to control
Phosphatidylinositol 5-phosphate 4-kinase type-2 beta (Homo sapiens), sequence (P78356 whole entry, the tested form may be a part): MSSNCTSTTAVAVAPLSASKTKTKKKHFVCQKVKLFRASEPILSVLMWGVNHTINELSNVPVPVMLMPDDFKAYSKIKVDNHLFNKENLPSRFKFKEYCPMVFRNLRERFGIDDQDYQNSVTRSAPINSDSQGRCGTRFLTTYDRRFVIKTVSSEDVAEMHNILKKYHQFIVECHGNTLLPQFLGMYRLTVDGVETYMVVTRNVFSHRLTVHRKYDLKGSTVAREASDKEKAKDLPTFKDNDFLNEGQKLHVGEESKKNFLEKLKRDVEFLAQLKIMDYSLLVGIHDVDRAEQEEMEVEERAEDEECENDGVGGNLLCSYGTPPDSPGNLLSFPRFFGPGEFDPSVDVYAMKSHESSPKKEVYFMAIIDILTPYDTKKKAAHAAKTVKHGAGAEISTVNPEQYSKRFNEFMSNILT

[14] = molecular target: Calcium/calmodulin-dependent protein kinase type 1G (Homo sapiens) (UniProt Q96NX5); assay: Inhibition of wild-type human partial length CAMK1G (M1 to A342 residues) expressed in bacterial expression system assessed as residual activity at 1 uM by Kinomescan method relative to control
[15] = molecular target: TGF-beta receptor type-1 (Homo sapiens) (UniProt P36897); assay: Inhibition of wild-type human partial length TGFBR1 (D179 to M503 residues) expressed in bacterial expression system assessed as residual activity at 1 uM by Kinomescan method relative to control
TGF-beta receptor type-1 (Homo sapiens), sequence (P36897 whole entry, the tested form may be a part): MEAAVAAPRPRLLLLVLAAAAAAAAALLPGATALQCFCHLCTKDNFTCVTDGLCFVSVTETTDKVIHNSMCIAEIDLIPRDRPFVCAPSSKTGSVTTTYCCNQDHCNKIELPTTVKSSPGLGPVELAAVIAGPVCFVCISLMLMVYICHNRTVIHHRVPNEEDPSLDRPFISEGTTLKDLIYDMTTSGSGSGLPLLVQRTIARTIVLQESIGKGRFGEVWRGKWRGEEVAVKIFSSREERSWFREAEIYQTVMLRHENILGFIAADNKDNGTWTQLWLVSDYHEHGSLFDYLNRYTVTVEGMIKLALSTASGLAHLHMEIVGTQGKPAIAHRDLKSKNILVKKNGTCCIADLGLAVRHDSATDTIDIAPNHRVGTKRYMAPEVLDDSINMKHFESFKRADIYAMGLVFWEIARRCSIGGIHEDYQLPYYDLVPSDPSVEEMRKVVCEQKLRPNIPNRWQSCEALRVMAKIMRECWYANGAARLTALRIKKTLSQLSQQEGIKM

[16] = molecular target: SRSF protein kinase 2 (Homo sapiens) (UniProt P78362); assay: Inhibition of wild-type human full length SRPK2 (M1 to S686 residues) expressed in bacterial expression system assessed as residual activity at 1 uM by Kinomescan method relative to control
[17] = tested on: Receptor-type tyrosine-protein kinase FLT3 (Homo sapiens), P36888 [D835Y]; assay: Inhibition of human partial length FLT3 D835Y mutant (Q580 to Y969 residues) expressed in bacterial expression system assessed as residual activity at 1 uM by Kinomescan method relative to control
[18] = molecular target: Serine/threonine-protein kinase WNK3 (Homo sapiens) (UniProt Q9BYP7); assay: Inhibition of wild-type human partial length WNK3 (M1 to D434 residues) expressed in mammalian expression system assessed as residual activity at 1 uM by Kinomescan method relative to control
[19] = molecular target: Bone morphogenetic protein receptor type-1A (Homo sapiens) (UniProt P36894); assay: Inhibition of wild-type human partial length BMPR1A (Q214 to I532 residues) expressed in bacterial expression system assessed as residual activity at 1 uM by Kinomescan method relative to control
[20] = molecular target: Casein kinase I isoform alpha-like (Homo sapiens) (UniProt Q8N752); assay: Inhibition of wild-type human full length CSNK1A1L (M1 to N337 residues) expressed in bacterial expression system assessed as residual activity at 1 uM by Kinomescan method relative to control
Casein kinase I isoform alpha-like (Homo sapiens), sequence (Q8N752 whole entry, the tested form may be a part, canonical isoform): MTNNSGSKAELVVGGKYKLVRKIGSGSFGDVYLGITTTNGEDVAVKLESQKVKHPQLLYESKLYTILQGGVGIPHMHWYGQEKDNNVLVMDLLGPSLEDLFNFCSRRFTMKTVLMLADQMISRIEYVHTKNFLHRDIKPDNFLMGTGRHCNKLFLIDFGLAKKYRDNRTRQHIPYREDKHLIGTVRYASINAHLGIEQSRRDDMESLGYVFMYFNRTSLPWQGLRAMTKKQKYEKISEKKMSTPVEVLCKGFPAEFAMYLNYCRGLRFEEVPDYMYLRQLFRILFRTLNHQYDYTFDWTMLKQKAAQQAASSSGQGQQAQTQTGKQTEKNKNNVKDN

[21] = molecular target: Phosphatidylinositol 3-kinase C2 domain-containing subunit gamma (Homo sapiens) (UniProt O75747); assay: Inhibition of wild-type human partial length PIK3C2G (M1 to I1446 residues) expressed in mammalian expression system assessed as residual activity at 1 uM by Kinomescan method relative to control
[22] = molecular target: Casein kinase I isoform gamma-2 (Homo sapiens) (UniProt P78368); assay: Inhibition of wild-type human full length CSNK1G2 (M1 to K415 residues) expressed in bacterial expression system assessed as residual activity at 1 uM by Kinomescan method relative to control
[23] = molecular target: Dual specificity mitogen-activated protein kinase kinase 2 (Homo sapiens) (UniProt P36507); assay: Inhibition of wild-type human full length MEK2 (M1 to V400 residues) expressed in mammalian expression system assessed as residual activity at 1 uM by Kinomescan method relative to control
Dual specificity mitogen-activated protein kinase kinase 2 (Homo sapiens), sequence (P36507 whole entry, the tested form may be a part): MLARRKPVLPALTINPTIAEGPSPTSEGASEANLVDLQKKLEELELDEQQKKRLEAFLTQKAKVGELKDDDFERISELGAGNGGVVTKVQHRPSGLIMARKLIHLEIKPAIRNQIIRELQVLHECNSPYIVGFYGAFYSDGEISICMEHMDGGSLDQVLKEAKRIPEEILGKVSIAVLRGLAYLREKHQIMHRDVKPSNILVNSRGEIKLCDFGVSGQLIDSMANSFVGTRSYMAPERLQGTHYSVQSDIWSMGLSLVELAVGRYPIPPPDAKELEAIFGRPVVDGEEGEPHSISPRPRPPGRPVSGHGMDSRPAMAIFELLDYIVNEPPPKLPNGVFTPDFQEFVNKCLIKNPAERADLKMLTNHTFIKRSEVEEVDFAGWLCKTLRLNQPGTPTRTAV

[24] = molecular target: Cyclin-dependent kinase 11B (Homo sapiens) (UniProt P21127); assay: Inhibition of wild-type human partial length CDC2L1 (P353 to G692 residues) expressed in bacterial expression system assessed as residual activity at 1 uM by Kinomescan method relative to control
Cyclin-dependent kinase 11B (Homo sapiens), sequence (P21127 whole entry, the tested form may be a part): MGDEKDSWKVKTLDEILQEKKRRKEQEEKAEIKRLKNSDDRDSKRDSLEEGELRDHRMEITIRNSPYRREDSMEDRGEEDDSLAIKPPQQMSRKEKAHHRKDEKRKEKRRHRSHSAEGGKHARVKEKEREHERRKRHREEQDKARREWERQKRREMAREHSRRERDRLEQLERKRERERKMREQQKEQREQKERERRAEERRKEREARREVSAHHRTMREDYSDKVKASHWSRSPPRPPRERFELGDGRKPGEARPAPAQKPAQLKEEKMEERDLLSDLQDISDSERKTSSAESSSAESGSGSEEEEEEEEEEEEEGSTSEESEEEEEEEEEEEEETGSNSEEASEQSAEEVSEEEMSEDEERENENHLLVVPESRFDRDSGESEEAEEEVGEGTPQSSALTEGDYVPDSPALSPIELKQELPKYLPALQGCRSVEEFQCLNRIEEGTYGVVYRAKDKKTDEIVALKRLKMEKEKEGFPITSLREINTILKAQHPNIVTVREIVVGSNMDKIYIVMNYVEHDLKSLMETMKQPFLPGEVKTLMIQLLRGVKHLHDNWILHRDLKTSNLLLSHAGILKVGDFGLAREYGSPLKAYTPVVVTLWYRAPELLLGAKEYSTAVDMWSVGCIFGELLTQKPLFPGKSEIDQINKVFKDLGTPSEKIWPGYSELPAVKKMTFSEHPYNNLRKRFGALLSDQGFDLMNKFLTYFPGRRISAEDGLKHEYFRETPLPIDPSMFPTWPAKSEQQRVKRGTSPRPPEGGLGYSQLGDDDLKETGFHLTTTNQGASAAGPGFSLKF

MV4-11 = assay: Growth inhibition of human MV411 cells; type: functional; details: Homo sapiens, MV4-11
[25] = molecular target: Mitogen-activated protein kinase 4 (Homo sapiens) (UniProt P31152); assay: Inhibition of wild-type human partial length ERK4 (M1 to L365 residues) expressed in bacterial expression system assessed as residual activity at 1 uM by Kinomescan method relative to control

Compound `C=CC(=O)Nc1cc(Nc2cc(-c3cccc(NC(=O)c4ccc(C(C)(C)C)cc4)c3C)cn(C)c2=O)ccc1C(=O)N1CCOCC1` has an Activity [1] of 97%, an Activity [2] of 96% and an Activity [3] of 100%. It also gave an Activity [4] of 87%, an Activity [5] of 97% and an Activity [6] of 74%. For the same compound, the Activity [7] was 99%, the Activity [8] was 73% and the Activity [9] was 100%. It also gave an Activity [10] of 99%, an Activity [11] of 98% and an Activity [12] of 100%. For the same compound, the Activity [13] was 82%, the Activity [14] was 100% and the Activity [15] was 93%. It also gave an Activity [16] of 94%, an Activity [17] of 97% and an Activity [18] of 94%. It also gave an Activity [19] of 98%, an Activity [20] of 100% and an Activity [21] of 95%. The Activity [22] was 94%, the Activity [23] was 100% and the Activity [24] was 96%. It also gave a GI50 (MV4-11) of 2100 nM and an Activity [25] of 95%.
